Experiment: Human HepG2 cell viability assay in 384 well format
Type: toxicity, cell-based
Parameters: dose 125 nL, time 70.5 hour; concentration not given beside the values
Conditions: HepG2 cells, read-out: Inhibition

Structure (SMILES)	cytotoxicity at 70.5 h [%]
COCC1CN(c2ccc(C#N)c(Cl)c2)CCO1 (stereo unspecified)	21.2
COC1CC2(CCN(Cc3ccc4c(c3)OCO4)CC2)C1	-12.6
Clc1ccccc1OC1CN(CC2CCOC2)C1 (stereo unspecified)	8.25
CCCn1ncc(C2CC(=O)NCc3nc4sc(C)cn4c32)c1C (stereo unspecified)	-3.1
Cn1cnc2c1CCN(CCOc1ccc3c(c1)CCC(=O)N3)C2	-12.1
Cc1ncc(CO)c(CN2CCCC2c2nc3c(C)cccc3[nH]2)c1O (stereo unspecified)	-0.268
O=C(CN(CC(O)c1ccc(F)cc1)C1CC1)NCc1cccs1 (stereo unspecified)	-114
CCn1c(C2CCCN(Cc3cc(OC)cc(OC)c3)C2)nn(C)c1=O (stereo unspecified)	-4.68
CS(=O)(=O)N1CCCC(C(=O)Nc2cnn(COCC(F)(F)F)c2)C1 (stereo unspecified)	3.12
CCC(NC(=O)Nc1ccc(OC)c(C)c1)c1noc(C)n1 (stereo unspecified)	4.08
CC1=CC[C@@H]2CN(C(=O)c3ccc(-c4cc[nH]n4)cc3)C[C@@H]2C1	0.519
NC(=O)C1CCN(CCc2ccc(NC(=O)C3CCC3)cc2)CC1	-1.87
COc1cc(Cl)ccc1C(=O)NCc1n[nH]c(C)n1	1.46
COc1ccc(OCCC(=O)N2CCCC2Cn2cccn2)cc1 (stereo unspecified)	0.4
COc1ccc(CC(=O)NC(CC(=O)O)c2ccc(F)cc2)cc1OC (stereo unspecified)	-5.71
CN(C)c1cccc(CNC(=O)Nc2ccc3[nH]nnc3c2)n1	-2.68
Cc1ncsc1CCN(C)C(=O)CN1CCCCCC1=O	-2.38
c1ccc(-c2nc(CN3CCCC(Cn4cncn4)C3)co2)cc1 (stereo unspecified)	17.2
COC(=O)NCCCC(=O)NC1(c2cccc(Cl)c2)CC1	-6.46
CC(=O)N1Cc2nccn2CC(CNC(=O)c2cnccn2)C1 (stereo unspecified)	-13.1
O=C(O)c1ccc(=O)n(CC(c2ccc(Cl)cc2)N2CCOCC2)c1 (stereo unspecified)	-6.42

Structure (SMILES)	cytotoxicity at 70.5 h [%]
COCCNC(=O)CN1CCN(c2nc(C)cs2)C(C)C1 (stereo unspecified)	-1.03
Cc1nc(C2CCCNC2)cc(N(Cc2nccn2C)C2CC2)n1 (stereo unspecified)	7.52
CN1CCOC(CNCC(=O)NCCc2ccc3c(c2)OCCO3)C1 (stereo unspecified)	4.64
COc1cc2nc3n(c(=O)c2cc1OC)CCN(C(=O)C(C)(C)C)CC3	-1.33
Cc1cnccc1NCCNC(=O)[C@H]1CNC[C@H](C(=O)N2CCCC2)C1	-4.18
O=C(c1cnco1)N1CCCC(Cc2nccs2)C1 (stereo unspecified)	-7.07
COc1ccc(OCCCN2CCOC(Cn3cccn3)C2)cc1 (stereo unspecified)	15.4
CCCc1ccc(OC23CCCN(CC2)C3)c(OC)c1 (stereo unspecified)	-9.71
CCCn1nccc1NC(=O)c1ccc(Cl)c(N2CCNC2=O)c1	-2.55
CCOc1ccc(-c2ccc3c(c2)OCO3)cc1C(N)=O	5.58
CC(C)(C)c1nc(CN2CCCC2CCc2ccccc2)no1 (stereo unspecified)	13.1
CCCN(Cc1cnn(C)c1)S(=O)(=O)c1cc(C)cc(F)c1	23.3
CC(NC(=O)c1cc2n(n1)CCCN(C)C2)c1cn2ccsc2n1 (stereo unspecified)	24.9
CN(C)S(=O)(=O)N1CCC(Oc2cnccn2)CC1	-0.386
COCCO[C@H]1CCN(C(=O)c2ccno2)[C@H]1Cc1ccncc1	-11.9
CCOC(=O)c1n[nH]cc1CN1CCOC(Cc2ccccc2)C1 (stereo unspecified)	0.539
COCCN(C)C[C@@H]1CN(C(=O)c2ccc(OC)c(F)c2)C[C@@H]1CO	-7.53
O=C(NCCn1nc2ccccn2c1=O)c1cc(-c2ccccc2)[nH]n1	-5.05
Cc1cc2n(n1)CC(CNC1CCN(Cc3ccncc3)CC1)CN2 (stereo unspecified)	-0.58
CCc1nncn1CCNC(=O)N1CCCC(Cc2nccn2C)C1 (stereo unspecified)	32.8
CN(Cc1ccc2c(c1)OCO2)Cc1nc(-c2ccco2)no1	-10.9

Structure (SMILES)	cytotoxicity at 70.5 h [%]
CCCS(=O)(=O)N1Cc2nccn2CC(CN(C)C)C1 (stereo unspecified)	-10.3
COC1COC2(CCN(Cc3ccc4ccccc4n3)CC2)C1 (stereo unspecified)	-12.9
Cn1ccc(C(=O)N2CCCC2c2cc[nH]n2)n1 (stereo unspecified)	25.1
Cn1cc(CN2C[C@@H](F)[C@@H](OCc3nc4cnccc4[nH]3)C2)cn1	-1.11
CC(C)C1CCC(N2CCN(CCS(C)(=O)=O)CC2)CC1 (stereo unspecified)	-4.3
O=C(NC1CC1)N1Cc2[nH]nc(COCC3CC3)c2C1	-7.86
Cc1ncc2c(c1C(=O)O)CCN(c1ncc(F)cn1)C2	-0.54
Cn1c2c(c(=O)n1C)CN(C(=O)c1cccc(F)c1)CCC2	1.87
Cc1csc(-c2cccc(NC(=O)NCC(C)(C)C(N)=O)c2)n1	-0.0997
COc1ccc(C2=CCN(C(=O)CN(C)Cc3ccoc3)CC2)cc1	49.4
CCCn1nc(C(=O)N(C)Cc2nnc3n2CCC3)ccc1=O	-6.95
CCn1cc(Br)c(C(=O)NCc2ccc(F)cc2)n1	4.64
CO[C@H]1C[C@@H](O)C12CCN(C(=O)CCCOc1ccccc1)CC2	-8.27
CC1CCCCN1C(=O)COc1nc(C(C)(C)C)no1 (stereo unspecified)	-2.52
Cc1ccc2[nH]c(CN3CC[C@@H](N4CCN(C)CC4)[C@H](O)C3)c(C)c2c1	-6.53
Cn1ncc(N2CCN(Cc3ccc(S(C)(=O)=O)cc3)CC2)cc1=O	-5.42
COc1ccc(CN(C)c2nccc(-c3cn(C)nc3C)n2)cc1	13.2
Cc1nn(C)c(Cl)c1C1CCCN1C(=O)c1ccc[nH]1 (stereo unspecified)	9.9
CCN(C)CC(=O)N1CCN(Cc2ccccc2)[C@@H]2CS(=O)(=O)C[C@@H]21	2.14
CC(C)(C)c1nc(CN2CCOC(Cn3cncn3)C2)cs1 (stereo unspecified)	1.47
Cc1cnn(CCC(=O)NS(=O)(=O)N2CCc3ccccc32)c1	-8.38

Structure (SMILES)	cytotoxicity at 70.5 h [%]
Cc1nn(CCN2CCSCC2)cc1CNCc1ccccn1	-5.69
O=C(NCc1cccnc1)[C@H]1C[C@@H]2CCN(c3ccncn3)C[C@H]2O1	-5.01
CN(CC(=O)NCCc1cc2ccccc2o1)S(C)(=O)=O	13.9
O=C(CNC(=O)Nc1cccc(Cl)c1SC(F)F)NC1CC1	16.9
CN(C)CCOCc1nnc2n1CCN(Cc1ccoc1)CC2	36.2
CC(CNCc1ccc(Br)cc1)Oc1ccccn1 (stereo unspecified)	2.54
CCCC(NC(=O)c1cscc1C)c1nnn[nH]1 (stereo unspecified)	-2.41
CC(C)c1noc(CNc2ccc(OC(F)F)cc2OC(F)F)n1	8.88
CC(C)n1ccc(CN2CCN(c3cc(NC4CC4)nc(N)n3)CC2)c1	-9
Cc1nn(C)c(N2CCOCC2)c1CNCc1nccs1	-6.17
CN(Cc1cnn(C)c1)S(=O)(=O)N1CCc2ccccc2C1	7.8
CN(C)C(=O)N1CCCC2(CCN(Cc3ccc(Cl)c(F)c3)C2)C1 (stereo unspecified)	-6.53
Cc1nc(CN(Cc2ccccc2)C2CCS(=O)(=O)C2)oc1C (stereo unspecified)	-0.994
O=C(CCCc1cn[nH]c1)N1CCOCC(O)C1 (stereo unspecified)	0.158
CC(=O)N1CCN(C(=O)c2snnc2C)[C@H]2CS(=O)(=O)C[C@H]21	-6.51
Cc1c(Br)c(C(=O)NC(C)c2ccccc2)nn1C (stereo unspecified)	-13
COCCn1cc(C(=O)NC2CCS(=O)(=O)C2)c2ccccc2c1=O (stereo unspecified)	-14.8
COCC1CN(Cc2ccc(OC)cc2)Cc2nnn(CC3CC3)c21 (stereo unspecified)	-4.99
